Assay results from patent publication US20220071976A1 (CHASE THERAPEUTICS CORPORATION, priority 2018, published 2022).
“Also recorded” adds a separate entry of the source.

How the values were obtained:
[1] = cited from earlier work; for improvement over baseline versus placebo on the MADRS: endpoint week 8, pramipexole 1.0 mg/day, fluoxetine 20 mg/day
[2] = high doses of pramipexole; cited from earlier work

Compound: O=c1[nH]c2ccccc2n1CCCN1CCC(n2c(=O)[nH]c3cc(Cl)ccc32)CC1 [domperidone, 5-chloro-1-(1-[3-(2-oxo-2,3-dihydro-1H-benzo[d]imidazol-1-yl)propyl]piperidin-4-yl)-1H-benzo[d]imidazol-2(3H)-one]
- effect on dose-limiting gastro-intestinal adverse events of pramipexole (concomitant oral administration of domperidone with high doses of pramipexole): prevented the occurrence of dose-limiting gastro-intestinal adverse events; also recorded: attenuated dose-limiting gastro-intestinal adverse effects

Compound: CNCCC(Oc1ccc(C(F)(F)F)cc1)c1ccccc1 (stereo not shown) [fluoxetine]
- improvement over baseline versus placebo on the MADRS [1]: significantly better improvement over baseline than the placebo group

Compound: CCCN[C@H]1CCc2nc(N)sc2C1 [pramipexole, (S)-6-propylamino-4,5,6,7-tetrahydro-1,3-benzothiazole-2-amine]
- activity in animal behavior tests simulating symptoms of depression [2]: active
- subjects reaching first intolerable dose FID-1 (human, in vivo, po): All subjects reached FID-1
- dose limiting toxicity (pramipexole alone, single oral increasing doses): gastro-intestinal adverse events in all subjects
- improvement over baseline versus placebo on the MADRS [1]: significantly better improvement over baseline than the placebo group
- patients reporting nausea ([1]; pramipexole 5.0 mg/day group): 76%
- patients reporting vomiting ([1]; pramipexole 5.0 mg/day group): 39%
- patients who discontinued treatment prematurely, mainly because of adverse events ([1]; pramipexole 5.0 mg/day group): 57.6%
- improvement at week 8 (change from baseline) ([1]; pramipexole 5.0 mg/day group, scale not stated, no p value because of high drop-out rate): −15.00
